Columns and labels:
cells = conditions: reported, trehalose in cells and in mice; cited from earlier work
[1] = system: human umbilical vein endothelial cells (HUVEC); assay: Autophagy induction in HUVEC, Cyto-ID fluorescence microplate detection; type: cell-based; conditions: 24 h
Procedure: First, we compiled a library of naturally occurring compounds known to enhance autophagy. Then, we calculated physiologically relevant concentrations of these compounds based on existing data (e.g., previously reported post-prandial plasma concentrations), and we tested each for its ability to induce autophagy at its calculated concentration alone and/or in combination with other candidate compounds. […] In all experiments, autophagy was assessed in human umbilical vein endothelial cells (HUVEC), because of their relevance to vascular physiological measures (in vivo measures, below). Pooled HUVEC cultures obtained from Cascade Biologics were grown in endothelial cell-specific medium (Lonza) at 37° C. in a […] incubator. Third passage cells were seeded into 96-well plates and allowed to reach 70% confluency, at which point candidate treatment compounds or combinations were applied for 24 hours. […] Autophagy was assessed using Enzo Life Sciences Cyto-ID autophagy detection reagents (fluorescence microplate detection of autophagic structures) according to manufacturers instructions on an M5 Spectramax fluorescent plate reader (Molecular Devices). Candidate AEON formulations were designated as AEON-1, -2, etc.
To identify a mixture of food-safe compounds that synergistically activates autophagy (the cellular process of recycling damaged internal components), we screened a library of natural compounds reported to induce autophagy in vitro (in cells). […] Autophagy was assessed via fluorescent microplate assay and confirmed by microscopy in cultured human umbilical vein endothelial cells treated for 24 hours.

[2] = low (physiologically relevant) doses, ingredient alone (trehalose 5 mM)

| Structure (SMILES) | Concentration at which the single agent induces autophagy (cells) [mM] | Autophagy induction (relative microplate fluorescence) [1, 2] | Autophagy induction (relative microplate fluorescence) ([1]; established inducers at rapamycin 0.5 μM, trehalose 50 mM (high dose), FIG. 1A) |
| --- | --- | --- | --- |
| Cn1c(=O)c2c(ncn2C)n(C)c1=O [caffeine] | 1 to 20 | – | – |
| C=C1CC[C@H](O)C/C1=C/C=C1\CCC[C@]2(C)[C@@H]([C@H](C)CCCC(C)C)CC[C@@H]12 [cholecalciferol] | – | had no effect on autophagy | – |
| O=C(O[C@@H]1Cc2c(O)cc(O)cc2O[C@@H]1c1cc(O)c(O)c(O)c1)c1cc(O)c(O)c(O)c1 [epigallocatechin gallate] | – | had no effect on autophagy | – |
| OC[C@H]1O[C@H](O[C@H]2O[C@H](CO)[C@@H](O)[C@H](O)[C@H]2O)[C@H](O)[C@@H](O)[C@@H]1O [trehalose] | 50 to 100 | had no effect on autophagy | significantly stimulated autophagy |

Source: patent US12396994B2, “Compositions for improving physiological function with age” (The Regents Of The University Of Colorado, a body corporate, priority 2017, dated 2025)
